In assay [1] the target is human TYK2 (JH2 domain-pseudokinase) (Homo sapiens (Human), UniProt P29597). The experiment in a line: TYK2 JH2 Domain Binding Assay (KINOMEscan). Here is the method: Binding constants for compounds of the present invention against the JH2 domain were determined by the following protocol for a KINOMEscan® assay (DiscoveRx). A fusion protein of a partial length construct of human TYK2 (JH2 domain-pseudokinase) (amino acids G556 to D888 based on reference sequence NP_003322.3) and the DNA binding domain of NFkB was expressed in transiently transfected HEK293 cells. From these HEK 293 cells, extracts were prepared in M-PER extraction buffer (Pierce) in the presence of Protease Inhibitor Cocktail Complete (Roche) and Phosphatase Inhibitor Cocktail Set II (Merck) per manufacturers' instructions. The TYK2 (JH2 domain-pseudokinase) fusion protein was labeled with a chimeric double-stranded DNA tag containing the NFkB binding site (5′-[…]-3′) fused to an amplicon for qPCR readout, which was added directly to the expression extract (the final concentration of DNA-tag in the binding reaction is 0.1 nM).
The liganded beads were blocked with excess biotin and washed with blocking buffer (SeaBlock (Pierce), 1% BSA, 0.05% Tween 20, 1 mM DTT) to remove unbound ligand and to reduce nonspecific binding.
Extracts were used directly in binding assays without any enzyme purification steps at a ≥10,000-fold overall stock dilution (final DNA-tagged enzyme concentration<0.1 nM). Extracts were loaded with DNA-tag and diluted into the binding reaction in a two step process. First extracts were diluted 1:100 in 1× binding buffer (PBS/0.05% Tween 20/10 mM DTT/0.1% BSA/2 μg/ml sonicated salmon sperm DNA) containing 10 nM DNA-tag. This dilution was allowed to equilibrate at room temperature for 15 minutes and then subsequently diluted 1:100 in 1× binding buffer. […] Kds were determined using an 11-point 3-fold compound dilution series with three DMSO control points. […] The compounds were then diluted directly into the assays such that the final concentration of DMSO was 0.9%. All reactions performed in polypropylene 384-well plates. Each was a final volume of 0.02 mL. Assays were incubated with shaking for 1 hour at room temperature. Then the beads were pelleted and washed with wash buffer (lx PBS, 0.05% Tween 20) to remove displaced kinase and test compound. […] The qPCR protocol consisted of a 10 minute hot start at 95° C., followed by 35 cycles of 95° C. for 15 seconds, 60° C. for 1 minute.
Kds were determined using an 11-point 3-fold compound dilution series with three DMSO control points. […] The compounds were then diluted directly into the assays such that the final concentration of DMSO was 0.9%. The Kds were determined using a compound top concentration of 30,000 nM. Kd measurements were performed in duplicate.
Binding constants (Kds) were calculated with a standard dose-response curve using the Hill equation: […]
The Hill Slope was set to −1.

The test system of assay [2] is IL-12 induced STAT4 phophorylation mediated by Tyk2/JAK2 (heterodimeric complex). Kind of assay: IL-12 Induced pSTAT4 in Human PBMC. In kind it is cell-based. Conditions: 1.7 ng/mL IL-12. The text has this:
The IL-12 Induced pSTAT4 assay evaluates the inhibition of IL-12 induced STAT4 phophorylation mediated by Tyk2/JAK2 (heterodimeric complex).

The target in the next assay is Tyk2 kinase domain (JH1) (Homo sapiens (Human), UniProt P29597). Kind of assay: Tyk2 Radioactive Kinase Assay. Type of assay: biochemical. The conditions noted are these: ATP 10 μM. Here is the method:
(§1) The Tyk2 and JAK2 radioactive kinase assay measures the percent inhibition at the Tyk2 kinase domain (JH1) and the percent inhibition at the JAK2 kinase domain (JH1). Results of the assay are expressed as percent inhibition at 10 μM.

In assay [3] the test system is GM-CSF induced STAT5 phosphorylation mediated by the JAK2/JAK2 homdimeric complex. Kind of assay: GM-CSF Induced pSTAT5 in Human PBMC. Conditions: Homo sapiens, PBMC, 20 min, read-out: PBMC_GMCSF_pSTAT5 IC50, human PBMC; GM-CSF 5 ng/mL for 20 minutes; pSTAT5.
Description: Human PBMC are isolated from buffy coat and are stored frozen for assays as needed.
In a further assay the target is JAK2 kinase domain (JH1) (Homo sapiens (Human), UniProt O60674). Kind of assay: JAK2 Radioactive Kinase Assay. Conditions: ATP 10 μM. In kind it is biochemical. Here is the method:
as §1

SMILES strings stand for the structures.

As a reminder, the Kd is the constant that tells how readily two partners part at equilibrium. A low value points to higher affinity. Usually IC50 stands for the concentration that inhibits the measured activity by half. A word on the inhibition: it is the percentage by which the read-out fell short of the control.

JAK2 kinase domain (JH1), sequence (O60674 849-1124): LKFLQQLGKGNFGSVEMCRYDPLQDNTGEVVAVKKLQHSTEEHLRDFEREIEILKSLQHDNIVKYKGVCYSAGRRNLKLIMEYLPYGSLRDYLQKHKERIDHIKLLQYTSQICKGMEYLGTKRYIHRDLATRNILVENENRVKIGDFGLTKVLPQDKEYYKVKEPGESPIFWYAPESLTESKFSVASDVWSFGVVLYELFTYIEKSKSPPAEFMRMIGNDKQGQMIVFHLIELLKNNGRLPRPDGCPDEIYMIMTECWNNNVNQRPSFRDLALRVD
human TYK2 (JH2 domain-pseudokinase), sequence (P29597 556-888): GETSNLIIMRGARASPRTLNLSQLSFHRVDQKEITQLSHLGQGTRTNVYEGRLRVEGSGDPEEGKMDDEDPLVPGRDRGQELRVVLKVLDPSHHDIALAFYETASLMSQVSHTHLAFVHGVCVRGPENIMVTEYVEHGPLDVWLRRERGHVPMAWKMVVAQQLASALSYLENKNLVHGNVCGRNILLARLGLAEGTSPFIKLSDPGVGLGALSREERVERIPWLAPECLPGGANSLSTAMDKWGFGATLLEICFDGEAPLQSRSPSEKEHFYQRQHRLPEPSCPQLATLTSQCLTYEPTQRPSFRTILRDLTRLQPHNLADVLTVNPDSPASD
Tyk2 kinase domain (JH1), sequence (P29597 897-1176): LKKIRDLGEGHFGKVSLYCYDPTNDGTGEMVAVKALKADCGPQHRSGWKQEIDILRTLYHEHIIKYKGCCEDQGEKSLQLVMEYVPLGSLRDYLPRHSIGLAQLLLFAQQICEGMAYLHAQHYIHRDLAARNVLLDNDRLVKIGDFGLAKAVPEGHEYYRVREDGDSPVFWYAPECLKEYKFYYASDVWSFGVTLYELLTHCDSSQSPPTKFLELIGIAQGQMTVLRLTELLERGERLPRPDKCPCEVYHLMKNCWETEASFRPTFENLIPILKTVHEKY

In turn, `CNc1cc(Nc2cccn(C(C)C)c2=O)cc2c(C(=O)N[C@H]3CC[C@@]3(C)O)cnn12` [I-1371] showed an equilibrium dissociation constant (Kd) in assay [1] below 0.2 nM.
Turning to `CNc1cc(Nc2cccn([C@H]3CCCC[C@H]3O)c2=O)nc2c(C(=O)N[C@@H]3C[C@@H]3F)cnn12` [I-988, N-((1R,2S)-2-fluorocyclopropyl)-5-((1-((1S,2R)-2-hydroxycyclohexyl)-2-oxo-1,2-dihydropyridin-3-yl)amino)-7-(methylamino)pyrazolo[1,5-a]pyrimidine-3-carboxamide], the IC50 is below 100 nM in assay [2] and above 50000 nM in assay [3]. The inhibition at 10 µM at Tyk2 kinase domain (JH1) (10 μM compound) and on JAK2 kinase domain (JH1) (10 μM compound) was below 50% each time. The dissociation constant (Kd) in assay [1] was below 0.2 nM.
For the molecule `CNc1cc(Nc2cccc(N3CCOC4(CCOC4)C3)n2)nc2c(C(=O)NC3CC3)cnn12` (stereo not shown) [I-744], the inhibition at 10 µM on Tyk2 kinase domain (JH1) (compound at 10 μM) and on JAK2 kinase domain (JH1) (compound at 10 μM) was below 50% each time.
`CNc1cc(Nc2cccc([C@@H]3CCCOC3)n2)nc2c(C(=O)N[C@H]3CC[C@H]3O)cnn12` [I-645]: the Kd in assay [1] lay in the range of 1 to 10 nM.
On the same count and under the same terms, to `[2H]C([2H])([2H])Oc1ncccc1Nc1cc(NC)n2ncc(C(=O)N[C@H]3[C@@H]4COC[C@@H]43)c2n1` [I-447] belongs below 0.2 nM.
Regarding `CNc1cc(Nc2cccnc2OC2CC2)nc2c(C(=O)NC3CC4(COC4)C3)cnn12` [I-433], the inhibition at 10 µM on Tyk2 kinase domain (JH1) (compound at 10 μM) was below 50%; on JAK2 kinase domain (JH1) (compound at 10 μM) it was 50 to 70%.
In assay [1], `CNc1cc(-c2cn([C@H]3CCN(CCF)C3)c3cnccc23)nc2c(C(=O)NC3CC3)cnn12` [I-1363] displayed a Kd of 0.2 to 1 nM.
Molecule `CNc1cc(-c2cn([C@H]3CCN(CCF)C3)c3cnccc23)nc2c(C(=O)N[C@@H]3C[C@@H]3F)cnn12` [I-1362] came in with a 50% inhibitory concentration (IC50) in assay [2] below 100 nM. In assay [1], the Kd was 0.2 to 1 nM.
For `CNc1cc(C2=CN(C(C)C)C3N=CC(F)=CC23)nc2c(C(=O)N[C@H]3CC[C@H]3O)cnn12` (stereo partly shown) [I-1387], in that order: below 100 nM and 1 to 10 nM.
For the molecule `CNc1cc(Nc2cc(Cl)cn(C3CCOCC3)c2=O)nc2c(C(=O)NCC(C)(C)CO)cnn12` [I-694], the results for the IC50 in assay [2] and in assay [3] were below 100 nM and above 50000 nM, respectively. Also, the inhibition at 10 µM at Tyk2 kinase domain (JH1) (compound at 10 μM) and on JAK2 kinase domain (JH1) (compound at 10 μM) was below 50% each time. Besides, the Kd in assay [1] is below 0.2 nM.
Regarding `CNc1cc(Nc2cccn(-c3cnc(C(=O)N(C)C)cn3)c2=O)nc2c(C(N)=O)cnn12` [I-53, 5-((1-(5-(dimethylcarbamoyl)pyrazin-2-yl)-2-oxo-1,2-dihydropyridin-3-yl)amino)-7-(methylamino)pyrazolo[1,5-a]pyrimidine-3-carboxamide], the inhibition at 10 µM on Tyk2 kinase domain (JH1) (10 μM compound) and on JAK2 kinase domain (JH1) (10 μM compound) was below 50% in each case. The molecule further registered a dissociation constant (Kd) in assay [1] below 0.2 nM.
`CNc1cc(Nc2cccn(-c3ccccn3)c2=O)nc2c(C(=O)N[C@@H]3CC[C@H]3COC)cnn12` [I-1232] had a dissociation constant (Kd) in assay [1] of 0.2 to 1 nM.
For `CNc1cc(Nc2cc(F)cn(C3CCOCC3)c2=O)nc2c(C(=O)NCC(C)(C)CO)cnn12` [I-529], the inhibition at 10 µM on Tyk2 kinase domain (JH1) (compound at 10 μM) and at JAK2 kinase domain (JH1) (compound at 10 μM) was below 50% each time.
As to `CNc1cc(C2=CN(C(C)C)C3N=CC(F)=CC23)nc2c(C(=O)N[C@@H]3CC[C@@H]3O)cnn12` (stereo partly shown) [I-1386], the Kd in assay [1] was 1 to 10 nM.
Still for that read-out and setting: to `CNc1cc(-c2cn(C3CC3)c3ncccc23)nc2c(C(=O)N[C@@H]3CC[C@H]3OC)cnn12` [I-1324] belongs below 0.2 nM.
Consider `CNc1cc(Nc2cccn(-c3cccc(C)n3)c2=O)nc2c(C(=O)NC3CC3)cnn12` [I-237], for which the “Tyk2 JH1% Inhibition @ 10 μM” value on Tyk2 kinase domain (JH1) (10 μM compound) is recorded as “A (percent inhibition at 10 μM lower than 50)”. Also, on JAK2 kinase domain (JH1) (10 μM compound), the “JAK2 JH1% Inhibition @ 10 μM” value is reported as “A (percent inhibition at 10 μM lower than 50)”.
For `CNc1cc(Nc2cccn(C3CCC4(CC3)OCCO4)c2=O)nc2c(C(=O)N[C@@H]3C[C@@H]3F)cnn12` [I-415, N-((1R,2S)-2-fluorocyclopropyl)-7-(methylamino)-5-((2-oxo-1-(1,4-dioxaspiro 14.51 decan-8-yl)-1,2-dihydropyridin-3-yl)amino)pyrazolo[1,5-a]pyrimidine-3-carboxamide], the 50% inhibitory concentration (IC50) in assay [2] is below 100 nM; in assay [3], above 50000 nM.

Values taken from patent publication US10577373B2, “TYK2 inhibitors and uses thereof” (Nimbus Lakshmi, Inc., priority 2017, dated 2020).
